Results as given in ChEMBL document CHEMBL4396934, “Novel α,β-unsaturated hydroxamic acid derivatives overcome cisplatin resistance” (Bioorg Med Chem, 2019).

molecular target: Histone deacetylase; assay: Inhibition of HDAC in human A2780 cells using Boc-Lys(epsilon-Ac)-AMC as substrate preincubated for 18 hrs followed by substrate addition and further incubation for 3 hrs by microplate reader based fluorescence assay; assay type: cell-based; details: not given

IC50 | SMILES
7.6 µM | CCCCOc1ccc(C(=O)NOCc2ccc(/C=C/C(=O)NO)cc2)cc1
6.85 µM | COc1cc(C(=O)NOCc2ccc(/C=C/C(=O)NO)cc2)cc(OC)c1OC

tested on: CAL-27; assay: Antiproliferative activity against human CAL27 cells after 72 hrs by microplate reader based MTT assay; assay type: functional, cell-based; details: CAL-27, 72 h

SMILES | IC50
CCCCOc1ccc(C(=O)NOCc2ccc(/C=C/C(=O)NO)cc2)cc1 | 4.55 µM
COc1cc(C(=O)NOCc2ccc(/C=C/C(=O)NO)cc2)cc(OC)c1OC | 8.94 µM

tested on: A2780; assay: Antiproliferative activity against human A2780 cells after 72 hrs by microplate reader based MTT assay; assay type: functional, cell-based; details: A2780, 72 h

IC50 | SMILES
1.7 µM | CCCCOc1ccc(C(=O)NOCc2ccc(/C=C/C(=O)NO)cc2)cc1
38.6 µM | COc1cc(C(=O)NOCc2ccc(/C=C/C(=O)NO)cc2)cc(OC)c1OC

molecular target: Histone deacetylase; assay: Inhibition of HDAC in human CAL27 cells using Boc-Lys(epsilon-Ac)-AMC as substrate preincubated for 18 hrs followed by substrate addition and further incubation for 3 hrs by microplate reader based fluorescence assay; assay type: cell-based; details: not given

IC50 | SMILES
3 µM | CCCCOc1ccc(C(=O)NOCc2ccc(/C=C/C(=O)NO)cc2)cc1
3.14 µM | COc1cc(C(=O)NOCc2ccc(/C=C/C(=O)NO)cc2)cc(OC)c1OC
